Laboratory results published in patent publication US8008337B2, “Azabicyclo[3.2.0] hept-3-yl compounds, a process for their preparation and pharmaceutical compositions containing them” (Les Laboratoires Servier, priority 2009, dated 2011).

Assays:
Type in all cases: in vivo
Wistar rat [1] = test: Interaction with barbital in the Wistar rat; details: 10 mg/kg PO 30 minutes before barbital 170 mg/kg IP, sleep measured for 4 hours
Description: The objective of this test is to determine the anti-sedative, awakening and/or anti-hypnotic properties of the compounds of the present invention. The rats are placed in individual cages and are given an injection of barbital (170 mg/kg IP). The duration of sleep is then measured for 4 hours after the injection of barbital, determined on the basis of loss of the righting reflex. The compounds of the invention or their carriers are administered by the oral route 30 minutes before the administration of barbital.

awake Wistar rat = test: Electroencephalogram recordings in the awake Wistar rat; details: 3 mg/kg IP, cortical EEG
Description: Electrodes are chronically implanted in adult male Wistar rats, being located at the surface of the frontal and parietal cortex. Cortical electroencephalogram (EEG) recordings are made in the rats placed in cages in a sound-proofed room. The compounds and carriers are administered in randomised manner by the intraperitoneal route at 10 o'clock on the same days with a minimum of 3 days between each administration, allowing each rat to be used as its own control. The absolute power of the slow delta activities (1-4 Hz), which predominate during slow sleep and disappear during wakefulness and paradoxical sleep, is averaged over successive periods of 30 minutes. Over 30 minutes, high and low values for the power of the slow delta activities are signs of […], respectively.

Wistar rat [2] = test: Social recognition in the Wistar rat; details: second encounter after 2 hours
Description: Initially described in 1982 (J. Comp. Physiol., 1982, 96, 1000-1006), the social recognition test has subsequently been proposed by various authors (Psychopharmacology, 1987, 91, 363-368; Psychopharmacology, 1989, 97, 262-268) for studying the mnemocognitive effects of new compounds. The test is based on the natural expression of the olfactory memory of the rat and its natural tendency to forget and allows evaluation of memorisation, by recognition of a young congeneric animal, by an adult rat. A young rat (21 days), taken at random, is placed for 5 minutes in the cage housing an adult rat. With the aid of a video device, the experimenter observes the social recognition behaviour of the adult rat and measures its overall duration. The young rat is then removed from the adult rat's cage and is placed in its own cage until the second introduction. The adult rat is given the compound under test by the intraperitoneal route and, after 2 hours, is again brought into the presence (5 minutes) of the young rat. The social recognition behaviour is then observed again and its duration measured. The assessment criterion is the difference (T2−T1), expressed in seconds, between the “recognition” times of the 2 encounters.

Sprague-Dawley rat = test: Object recognition in the Sprague-Dawley rat; details: 3 mg/kg PO 60 minutes before each session, second session 24 hours later
Description: The object recognition test in the Sprague-Dawley rat (Behav. Brain Res., 1988, 31, 47-59) is based on the spontaneous exploratory activity of the animal and has the characteristics of episodic memory in humans. This memory test is sensitive to ageing (Eur. J. Pharmacol., 1997, 325, 173-180) and to cholinergic dysfunctions (Pharm. Biochem. Behav. 1996, 53(2), 277-283) and is based on the differences in the exploration of 2 objects of fairly similar shape—one familiar, the other new. Prior to the test, the animals are habituated to the environment (an enclosure without an object). In the course of a first session, the rats are placed (3 minutes) in the enclosure, in which there are 2 identical objects. The duration of exploration is measured for each object. In the course of the second session (3 minutes), 24 hours later, 1 of the 2 objects is replaced by a new object. The duration of exploration is measured for each object. The assessment criterion is the difference, Delta, expressed in seconds, between the exploration times for the new object and for the familiar object in the course of the second session.

NMRI mouse = test: Tail suspension test in the NMRI mouse; details: 10 mg/kg IP, 24 hours and 30 minutes before suspension, 6 minutes
Description: The tail suspension test in the mouse (Porsolt et al., Arch. Int. Pharmacodyn., 1987, 288, 11) enables detection of psychopharmacological properties of compounds. NMRI mice are suspended by the tail, with the aid of a piece of adhesive tape, from a hook for 6 minutes: the immobility time is measured automatically with the aid of movement sensors. The animals are treated, by the intraperitoneal route, with the compounds of the invention or their carriers 24 hours and 30 minutes before they are suspended.

[3] = test system: extracellular levels of dopamine; test: Intracerebral microdialysis in the striatum of the awake rat; details: 10 mg/kg i.p., striatum microdialysate, awake Wistar rat
Description: Intracerebral microdialysis in the awake rat makes it possible to assess the influence of a compound on the release of neurotransmitters such as dopamine into the extracellular space of small cerebral structures, especially the striatum.
This technique is carried out in two steps: a surgery step (stereotaxic implantation of a cannula-guide carried out on the anaesthetised animal) and a microdialysis step carried out on the awake animal (collection of samples of extracellular cerebral liquid). Male rats of the Wistar strain (280-320 g) are anaesthetised and placed in a stereotaxic apparatus. A guide cannula is implanted in the striatum of the animals according to the following stereotaxic coordinates: antero-posteriority −1 mm, laterality +2.8 mm, depth −3 mm, relative to the bregma, according to the atlas of Paxinos and Watson (1996). One week after the surgery, a microdialysis probe (CMA11, length 4 mm, Phymep) is inserted into the guide cannula. The animals are placed in experimentation cages and the to probe inlet is connected to a pump continuously perfusing artificial cerebrospinal fluid (flow rate 1 μl/min). […] The extracellular levels of dopamine are assessed in each microdialysate using a liquid chromatographic technique coupled with electrochemical detection. The values are expressed as the mean±SEM relative to the baseline values (reference 100%).

SMILES: Cl.NC(=O)c1ccc(OCCCN2C[C@H]3CC[C@H]3C2)cc1 [Example 1, 4-{3-[(1R,5S)-3-Azabicyclo[3.2.0]hept-3-yl]-propoxy}benzamide hydrochloride]
- reduction of the duration of sleeping caused by barbital (Wistar rat [1]): −81%
- duration of reduction in power of the slow delta waves (awake Wistar rat): 120 min
- effect on power of the slow delta waves (1-4 Hz) (awake Wistar rat): significant reduction
- difference (T2−T1) between recognition times (Wistar rat [2]; 1 mg/kg IP): 24 s
- difference (T2−T1) between recognition times (Wistar rat [2]; 3 mg/kg IP): 36 s
- difference, Delta, between exploration times for the new and the familiar object (Sprague-Dawley rat): ~8 s
- increase in the immobility time (NMRI mouse): 119%
- increase in endogenous cerebral concentrations of dopamine (in comparison with basal values) [3]: +123%
